Test results as given in US20050118226A1, “Methods for treating ACAT-related diseases” (priority 2003, published 2005).
“Also recorded” adds a separate entry of the source.

How the values were obtained:
Type in all cases: in vivo, mouse
amyloid plaques = experiment: Brain plaque load in hAPP mice (thioflavin S and 6E10 Aβ staining)
Experimental: For histomorphological analyses, 8 to 15 histological sections (10 μm) were prepared from one hemisphere of 12 animals (6 placebo, 6 CP-113,818; 3 male, 3 female per group). Number and surface area of amyloid plaques were evaluated in both cortex and hippocampus. 6E10 (Signet; 1:5000; monoclonal) as primary antibody, and Cy™3 fluorescent goat anti-mouse IgG as secondary antibody (Jackson Immuno Research) were used for Aβ staining. Sections of the same brains were also used for synaptophysin staining (Chemicon; 1:5000; monoclonal). Synaptophysin immunoreactive spots were counted by light microscopy in the hippocampal CA1 region. The estimation of immunohistochemical reactions was done by computer-assisted quantification (IMAGE PRO PLUS, Media Cybernetics).
Brain plaque load was evaluated by thioflavin S and immunohistochemical stainings (FIG. 3). Thioflavin S-positive plaques were barely detectable in the cortex of hAPP mice at 6.5 months of age and absent in CP-113,818-treated animals (FIG. 2A). […] Individual differences in amyloid load reflected the well-known variability in Aβ accumulation that has been previously observed in transgenic mice, specifically at early stages of pathology (Johnson-Wood et al., 1997; Kawarabayashi et al., 2001). Amyloid load in the cortex of female animals was two-fold higher than in males, in agreement with previous studies in other mouse models of AD (Callahan et al., 2001; Lee et al., 2002; Wang et al., 2003). The hippocampus, slower than the cortex in developing amyloid pathology in hAPP mice, contained significant numbers of Aβ deposits only in female, but not in male, animals (FIG. 3B and FIG. 4). […] Importantly, when the two genders were considered separately, plaque numbers were reduced to an equal extent in females and males, by 89%, p<0.00002, and 88%, p<0.0002, respectively (FIG. 3B). […] In females the decrease was from 0.45 to 0.04 percent plaque load (p<0.00002), while in males it was from 0.10 to 0.02 (p<0.00013; FIG. 4B). As mentioned above, amyloid load in the hippocampus of male animals was too low at this age for reliable assessment of changes caused by CP-113,818.

endogenous APP = experiment: Western blot of endogenous APP processing in brains of non-transgenic littermates
Experimental: (§1) For Western blot analyses, frozen hemispheres of non-transgenic littermates were homogenized in TBS buffer containing 5 mM EDTA, 1 mM 1,10-phenanthroline (ICN Biomedicals), 20 μM ALLN (BioMol) and a protease inhibitor mixture (Roche). Homogenates were centrifuged at 100000 g for 1 hour at +4° C. The supernatants were used for analyses of secreted APP forms and ApoE, while the pellets extracted with the homogenization buffer containing 1% Triton X-100 and 0.2% SDS. 120 μg of total protein were resolved on 4-12% or 12% NuPAGE Bis-Tris gels (Invitrogen) under reducing conditions, and Western blots were performed as described previously (Puglielli et al., 2001). For analysis of Notch-ICD (NICD), 250 μg of total protein was immunoprecipitated with an NICD-specific antibody (cleavage site (Val1744)-specific; Cell Signaling Technology) according to manufacturer's recommendations. Antibodies used for Western blots were R1736 (specific for sAPP-α; a gift from Dr. D. J. Selkoe, Brigham and Women's Hospital, Boston, Mass.), Abl4 (PS 1-NTF; a gift from Dr. S. E. Gandy, Thomas Jefferson University, Philadelphia, Pa.), Pen2 (a gift from Dr. S. S. Sisodia, University of Chicago, Chicago, Ill.), N-Cadherin (C32, C-terminal; BD Transduction Laboratories), ApoE (Santa Cruz Biotechnology), β-tubulin (Sigma), BACE1 and Nicastrin (Affinity BioReagents). Rbt×APP (CTF), 22C11 (APP-NTF) and Rbt×PSI (PS 1-CTF) were from Chemicon International. BACE stainings (N-terminal; Affinity BioReagents) were confirmed with two additional antibodies; Ms×BACE1 (Chemicon International) and BACE (C-terminal; Affinity BioReagents). Densitometric analyses were performed using the QuantityOne software package (Bio-Rad). Statistical significance was determined by Student's t test. For Western blot analyses shown in supplemental figures, neutralized formic acid fractions (approximately 100 μg of total protein) were precipitated by adding 50% trichloroacetic acid to 15.5% final concentration. After 30 min incubation and centrifugation at 4° C., the pellets were solubilized by adding 10 μl of 2M Tris base and 10 μl of 4×LDS-PAGE loading buffer (NuPage, Invitrogen). Before loading, the samples were incubated for 30 min at 37° C., freeze-thawed once and boiled. Western blot analysis was performed as described above.
Our previous cell-based studies have shown that ACAT inhibition reduces Aβ generation and alters APP processing by all three secretases (Puglielli et al., 2001). To determine whether CP-113,818 treatment modified brain APP processing in hAPP mice, we initially resolved formic acid-extracted brain proteins by SDS-PAGE to detect APP and its proteolytic derivatives. […]

[1] = tested on: γ-secretase complex components and substrates, BACE1, ApoE; experiment: Western blot of γ-secretase components and substrates, BACE1 and ApoE in non-transgenic littermates
Experimental: as §1
Our previous cell-based studies have shown that ACAT inhibition reduces Aβ generation and alters APP processing by all three secretases (Puglielli et al., 2001). To determine whether CP-113,818 treatment modified brain APP processing in hAPP mice, we initially resolved formic acid-extracted brain proteins by SDS-PAGE to detect APP and its proteolytic derivatives. […] However, levels of the secreted cleavage products of both α- and β-secretases (sAPP) were reduced by treatment with the ACAT inhibitor albeit not nearly as dramatically as Aβ (FIG. 9). Inhibition of sAPP production in the absence of a change in CTFs was somewhat surprising, and possibly an artifact caused by formic acid extraction. Because tissue from treated hAPP mice had been extracted with formic acid or fixed for histological studies, we looked at levels of APP-CTFs in total brain lysates from the non-transgenic littermates used in the Morris water maze tests. Using non-transgenic animals for these experiments also afforded an assessment of the effects of CP-113,818 on endogenous APP processing. CP-113,818 reduced liver cholesterol/cholesteryl-esters and serum cholesterol of non-transgenic littermates similarly to the transgenic animals shown in FIG. 1C (data not shown). Endogenous mouse APP-CTF levels in brain lysates from CP-113,818-treated animals decreased by 44% when compared to placebo-treated mice (n=8, p<0.005, values normalized to APP holoprotein levels; FIG. 10A, B). We could not resolve C99 and C83 from these samples due to smearing in the low molecular weight range because of high protein load (FIG. 10A). […]

Compound: CCCCCCCC[C@H](SCCCCCC)C(=O)Nc1c(SC)cc(C)nc1SC [CP-113,818]
- reduction of cortical plaque number, females (amyloid plaques; female hAPP mice, cortex, 6E10 staining, 57 days): 89%
- cortical plaque numbers / Aβ staining at beginning versus end of treatment (amyloid plaques; female hAPP mice, cortex, day 0 without vs day 57 with treatment): remarkably similar
- percent plaque load in cortex after treatment, females (amyloid plaques; female hAPP mice, cortex, placebo 0.45): 0.04%
- decrease of plaque number in the hippocampus of female mice (amyloid plaques; female hAPP mice, hippocampus, 57 days): 99%
- percent plaque load in hippocampus after treatment, females (amyloid plaques; female hAPP mice, hippocampus, placebo 0.295): 0.09%
- thioflavin S-positive plaques in the cortex (amyloid plaques; hAPP mice at 6.5 months of age): absent
- reduction of cortical plaque number (amyloid plaques; hAPP mice, all animals, cortex, 6E10 staining, 57 days): 88%
- decrease of plaque burden (percent of cortex covered by plaques) (amyloid plaques; hAPP mice, all animals, cortex, 57 days): 90%
- reduction of cortical plaque number, males (amyloid plaques; male hAPP mice, cortex, 6E10 staining, 57 days): 88%
- percent plaque load in cortex after treatment, males (amyloid plaques; male hAPP mice, cortex, placebo 0.10): 0.02%
- decrease in the ratio between total sAPP and sAPPα (endogenous APP): 36%
- decrease of endogenous mouse APP-CTF levels (endogenous APP; brain lysates, normalized to APP holoprotein, vs placebo): 44%
- reduction of total sAPP (endogenous APP; soluble TBS fraction): 19.1%
- decrease of sAPPα (endogenous APP; soluble TBS fraction, trend, n.s.): 3.4%
- Notch intracellular domain (NICD) levels ([1]; immunoprecipitated from non-transgenic mouse brain lysates): statistically unchanged; also recorded: remained unchanged
- BACE protein levels ([1]; non-transgenic brain lysates): unchanged; also recorded: did not alter expression levels
- levels of N-cadherin-CTF1 ([1]; non-transgenic brain lysates): unaffected; also recorded: remained unchanged
- levels of PS1 N- and C-terminal fragments, nicastrin, and pen-2 ([1]; non-transgenic brain lysates): did not detect significant changes
- nicastrin maturation / maturation of γ-secretase complex ([1]; non-transgenic brain lysates): unaffected; also recorded: did not alter maturation
- expression of ApoE ([1]; non-transgenic littermates, soluble TBS fraction): unchanged; also recorded: did not alter expression levels
